# “Also recorded” adds a separate entry of the source.
# Columns and labels:
# [1] = In vivo elution: HPLC detection of TA in tissues after 4-week subretinal implantation; parameters: species or system rabbit; settings: four weeks after the implant, PCL/TA 60:40 subretinal
# [2] = 72 hours after injection; cited from earlier work
# [3] = direct injection, posterior segment; cited from earlier work
Compound,TA detection in anterior structures or blood (HPLC) [1],TA detection in posterior tissue samples (HPLC) [1],"triamcinolone present in the vitreous associated with other tissues including retina, pigment epithelium, sclera [2]",adverse or undesirable side effects observed [3]
"CC1(C)O[C@@H]2C[C@H]3[C@@H]4CCC5=CC(=O)C=C[C@]5(C)[C@@]4(F)[C@@H](O)C[C@]3(C)[C@]2(C(=O)CO)O1 [TA, Triamcinolone acetonide]",not detected,confirmed the presence; also recorded: localized to the posterior eye segment,,
C[C@]12C=CC(=O)C=C1CC[C@H]1[C@@H]3C[C@@H](O)[C@](O)(C(=O)CO)[C@@]3(C)C[C@H](O)[C@@]12F [triamcinolone],,,less than 1%,"elevations in intraocular pressure and the formation of, or acceleration of the development of cataracts"

# Reference: patent US20060024350A1, “Biodegradable ocular devices, methods and systems” (priority 2004, published 2006)
